The results in this text go back to paper PMC5354587, “Ergosterone-coupled Triazol molecules trigger mitochondrial dysfunction, oxidative stress, and acidocalcisomal Ca^2+ release in Leishmania mexicana promastigotes” (Microbial Cell, 2015).

Assay type in all cases: cell-based
Assay [1] concerns Leishmania mexicana promastigotes. Kind of assay: Cytoplasmic Ca2+ level measurement with Fura 2-AM. To be noted: Erg-GTr 1.4 μM or Erg-GTr2 2.3 μM; same result with extracellular Ca2+ sequestered by EGTA. The text has this: In order to evaluate the possible effect of Erg-GTr and Erg-GTr2 on the cytoplasmic Ca^2+ concentration ([Ca^2+]cyt) in L. mexicana promastigotes, parasites were loaded with fura 2-AM, a fluorimetric Ca^2+ indicator which allows the measurement of intracellular changes in its concentration. Figure 7A represents the relative [Ca^2+]cyt, indicated as normalized OD340/380 ratio.
The fluorescent ratiometric Ca^2+ indicator Fura 2-AM was used to analyze intracellular Ca^2+ concentration. Promastigotes from stationary phase cultures were washed twice with PBS containing 1% glucose and incubated for 3 hours at 29°C with 4 μM Fura 2-AM, […], and 0.05% pluronic acid. Thereafter, parasites were washed twice, resuspended, and placed in a stirred quartz cuvette at 29°C. Fluorescence (ex 340 nm/380 nm and em 510 nm) was registered in a Hitachi F-7000 Spectrofluorimeter. Digitonin and EGTA were used to obtain the maximum and minimum [Ca^2+] in the sample, respectively.

The subject of a further assay is human dermic fibroblasts. Kind of assay: Half-inhibitory concentration on human fibroblasts, modified MTT method. To be noted: Fibroblast, 72 hours. As for the experimental part:
(§1) Promastigotes of Leishmania mexicana Bel 21 strain were cultured at 26°C in Liver Infusion Tryptone (LIT) medium supplemented with 10% fetal bovine serum (Internegocios). Primary cultures of human dermic fibroblasts were performed at 37°C in DMEN medium (Sigma) supplemented with 10% fetal bovine serum in a CO2 incubator at 5% CO2.
(§2) To determine the IC50 in parasites and human fibroblasts the protocol described by was followed. Briefly, a suspension of 2 x 10^6 parasites per mL^-1 or 5 x 10^3 fibroblasts per well were transferred into 96 well plates and different concentrations of the compounds were added. Plates were incubated under the corresponding culture conditions for 48 or 72 hours for L. mexicana or human fibroblasts, respectively. Thereafter, parasites plates were centrifuged prior to the elimination of the supernatant. Cell viability was measured by the modified MTT method, where cells were incubated with the MTT substrate at 0.2 mg x mL^-1 for 4 hours. Colored crystals formed were solubilized in DMSO and absorbance was measured at 570 nm. IC50 was obtained from a dose response curve using the software OriginLab Pro 6.0^©.

Assay [2] concerns Leishmania mexicana promastigotes. Kind of assay: Half-inhibitory concentration on parasites, modified MTT method. As for the experimental part: Parasites were treated with different concentrations of the synthesized compounds for 48 hours to determine their cytotoxic effect. A dose dependent growth inhibition was observed after this time.
as §1, §2
Background: Formazan colour is commonly taken as a measure of viable cells.

For assay [3] the test system is unchanged. Briefly: Alkalinization of acidocalcisomes, acridine orange. To be noted: Erg-GTr 1.4 μM or Erg-GTr2 2.4 μM; nigericin 2 μM as control. From the text:
Leishmania can store Ca^2+ in different compartments like the endoplasmic reticulum, the mitochondrion, and the acidocalcisomes. The major Ca^2+ reservoir is represented by this last organelle. In order to analyze if the [Ca^2+]cyt increase is due to its release from acidocalcisomes, parasites were charged with acridine orange and assayed fluorimetrically. Since acridine orange accumulates in acidic compartments, it allows detection of alkalinization.
To evaluate the effect of ergosterone coupled molecules on the Ca^2+ reservoir organelle acidocalcisome, parasites were stained with acridine orange as described previously. Briefly, 1 x 10^7 parasites were washed twice with loading buffer (20 mM Tris-HCl, 130 mM KCl, 1 mM MgCl2, and 2 mM KH2PO4) and incubated for 5 minutes with acridine orange (5 μM). Samples were washed twice, resuspended in 500 μL of the same buffer, and transferred to a stirred quartz cuvette at 29°C. Fluorescence (ex 488 nm and em 530 nm) was registered in a Hitachi F-7000 Spectrofluorimeter. Nigericin was used as control for acidocalcisome alkalinization.

The test system is the same in assay [4]. Briefly: Mitochondrial membrane potential, Mitotracker Red CMXROS, flow cytometry. The following applies: treatment up to 48 hours, flow cytometry. As for the experimental part: In order to determine the energetic state of the mitochondrion after parasites treatment, the compound Mitotraker Red CMXROS was used. As described in the Materials and Methods section, parasites were treated for 6, 16, 24, and 48 hours with each molecule at its IC50, then incubated with Mitotraker Red CMXROS (50 nM) for 30 minutes under culture conditions, and finally analyzed by flow cytometry. […] Additionally, to rule out if Erg itself (the non-azole fraction of the conjugates) could be responsible for this hyperpolarization, parasites were treated with this compound and ΔΨmit was monitored for up to 48 hours by flow cytometry.
Mitotracker CMX Red(Invitrogen) was used to determine the mitochondrial membrane potential (Ψmit) of treated parasites. After 6, 16, 24, and 48 hours treatment, cells were incubated in culture medium with 50 nM Mitotracker CMX Red for 30 minutes at 26°C in the dark. Thereafter, parasites were washed twice with PBS, resuspended in 1 mL buffer, and analyzed using a cytometer (Beckman Coulter). Parasites incubated with valinomycin (500 nM for 30 minutes) were used as positive control. To evaluate the effect of ergosterone coupled molecules on the mitochondrial membrane potential immediately after molecule addition we used the fluorophore rhodamine-123, a mitochondrion-specific cationic dye, which distributes across the inner mitochondrial membranes strictly according to their membrane potential, as described before. Briefly, 1 x 10^7 parasites were washed twice with rhodamine 123 loading buffer (20 mM Tris-HCl, 130 mM KCl, 1 mM MgCl2, and 2 mM KH2PO4) and incubated with 20 μM rhodamine 123 for 45 minutes at 29°C under agitation. Samples were washed twice, resuspended in 500 μL of the same buffer, and transferred to a quartz cuvette. Fluorescence (ex 488 nm and em 530 nm) was registered in a Hitachi F-7000 Spectrofluorimeter. FCCP was used as control for mitochondrial membrane depolarization.
(In general: In flow cytometry, cells or beads pass a laser one at a time.)

In the case of `CC(C)C(C)C=CC(C)C1CCC2C3=CC(=NNC(=O)n4cnnc4)C4(O)CC(=O)CCC4(C)C3CCC21C` (stereo not drawn) [Erg-GTr, [1,2,4]triazole-4-carboxylic acid [5-hydroxy-10,13-dimethyl-3-oxo-17-(1,4,5-trimethyl-hex-2-enyl)-1,2,3,4,5,9,10,11,12,13,14,15,16,17-tetradecahydro-cyclopenta[a]phenanthren-6-ylidene]-hydrazide], the “effect on cytoplasmic Ca2+ concentration ([Ca2+]cyt)” value in assay [1] is recorded as “rapid increase”. Also, the concentration for half-maximal inhibition (IC50) is 13.7 ± 1.9 µM in the assay with human dermic fibroblasts and 1.4 ± 0.4 µM in assay [2] (Leishmania mexicana, 48 h, read-out: IC50 on L. mexicana promastigotes). The compound also gave a Selectivity index in assay [2] (promastigotes compared to human dermic fibroblasts) of 9.8. The “acridine orange fluorescence (acidocalcisome alkalinization)” value in assay [3] is reported as “rapid fluorescence increase”. Further, the “effect on inner mitochondrial membrane potential (ΔΨmit)” value in assay [4] is recorded as “hyperpolarize”.

What is called IC50 is the concentration that gives 50% inhibition.
